# Data reported in patent publication US20080031982A1 (Metaproteomics, LLC, priority 2006, published 2008).
# Marks after values point to notes of the source that are not given here.
# Legend:
# [1] = test system: LPS-treated 3T3-L1 adipocytes; experiment: Adiponectin secretion in LPS/3T3-L1 adipocytes; type: cell-based, murine; conditions: for Maximum adiponectin stimulation / concentration of maximum adiponectin stimulation: 100 ng/ml LPS
# 3T3-L1 adipocytes = experiment: Lipogenesis in 3T3-L1 adipocytes (Oil Red O / BODIPY); type: cell-based, murine; conditions: for adipogenic / lipogenic response: relative to solvent and positive controls
# Description: Prior to experiments, cells were cultured in DMEM containing 10% FBS-HI added 50 units penicillin/ml and 50 μg streptomycin/ml, and maintained in log phase prior to experimental setup. Cells were grown in a 5% CO2 humidified incubator at 37° C. Components of the pre-confluent medium included (1) 10% FBS/DMEM containing 4.5 g glucose/L; (2) 50 U/ml penicillin; and (3) 50 μg/ml streptomycin. Growth medium was made by adding 50 ml of heat inactivated FBS and 5 ml of penicillin/streptomycin to 500 ml DMEM. This medium was stored at 4° C. Before use, the medium was warmed to 37° C. in a water bath.
# 3T3-T1 cells were seeded at an initial density of 6×10^4 cells/cm^2 in 24-well plates. For two days, the cells were allowed grow to reach confluence. Following confluence, the cells were forced to differentiate into adipocytes by the addition of differentiation medium; this medium consisted of (1) 10% FBS/DMEM (high glucose); (2) 0.5 mM methylisobutylxanthine; (3) 0.5 μM dexamethasone and (4) 10 μg/ml insulin (MDI medium). After three days, the medium was changed to post-differentiation medium consisting of 10 μg/ml insulin in 10% FBS/DMEM.
# Whenever fresh media were added, fresh test material was also added.
# Oil Red 0 Staining—Triglyceride content of D6/D7-differentiated 3T3-L1 cells was estimated with Oil Red 0 according to the method of Kasturi and Joshi [Kasturi, R. and Joshi, V. C. […] Monolayer cells were washed with PBS (phosphate buffered saline, Mediatech) and fixed with 10% formaldehyde for ten minutes. Fixed cells were stained with an Oil Red 0 working solution of three parts 0.6% Oil Red O/isopropanol stock solution and two parts water for one hour and the excess stain was washed once with water. The resulting stained oil droplets were extracted from the cells with isopropanol and quantified by spectrophotometric analysis at 540 nm (MEL312e BIO-KINETICS READER, Bio-Tek Instruments, Winooski, Vt.).
# Briefly, media were removed and cells were washed once with non-sterile PBS. A stock 1000× BODIPY/DMSO solution was made by dissolving 1 mg BODIPY in 1 ml DMSO (1,000 μg BODIPY/ml). […] One-hundred μl of this working solution (1 μg BODIPY) was added to each well of a 96-well microtiter plate. After 15 min on an orbital shaker (DS-500, VWR Scientific Products, South Plainfield, N.J.) at ambient temperature, the cells were washed with 100 μl PBS followed by the addition of 100 μl PBS for reading for spectrofluorometric determination of BODIPY incorporation into the cells.
# Nonpolar lipid incorporation was represented relative to the nonpolar lipid accumulation of fully differentiated cells in the solvent controls.
# [2] = test system: insulin-resistant 3T3-L1 adipocytes; experiment: Adiponectin secretion from insulin-resistant 3T3-L1 adipocytes; type: cell-based, murine; conditions: 50.0 μg/ml, ratio of the indices (Table 21)
# Description: 3T3-L1 cells were seeded at an initial density of 1×10^4 cells/cm^2 in 96-well plates. For two days, the cells were allowed grow to reach confluence. Following confluence, the cells were forced to differentiate into adipocytes by the addition of differentiation medium; this medium consisted of (1) 10% FBS/DMEM (high glucose); (2) 0.5 mM methylisobutylxanthine; (3) 0.5 μM dexamethasone and (4) 10 μg/ml insulin (MDI medium). From Day 3 through Day 5, the medium was changed to post-differentiation medium consisting of 10 μg/ml insulin in 10% FBS/DMEM.
# Briefly, on Day 6, cells were maintained in serum-free media containing 0.5% bovine serum albumin (BSA) for three hours and then treated with 1 μg insulin/ml plus solvent or insulin plus test material. […] Twenty-four hours later, the supernatant medium was sampled for adiponectin determination.
# Adiponectin Assay—The adiponectin secreted into the medium was quantified using the Mouse Adiponectin Quantikine® Immunoassay kit with no modifications (R&D Systems, Minneapolis, Minn.).
# Substituting {relative adiponectin secretion/[concentration]} for the independent variable v/[S] and {relative adiponectin secretion} for the dependant variable {v}, produced a relationship of the form y=mx+b. […]
# [3] = test system: LPS-stimulated 3T3-L1 adipocytes; experiment: IL-6 secretion in LPS/3T3-L1 adipocytes; type: cell-based, murine; conditions: at the concentration of maximum inhibition, 100 ng LPS/ml; for IL-6 Index: indexed to LPS control
# [4] = test system: TNFα-treated 3T3-L1 adipocytes; experiment: Adiponectin secretion from TNFα-treated 3T3-L1 adipocytes; type: cell-based, murine; conditions: for maximum increase of adiponectin secretion from TNFα control: 10 ng/ml TNFα
# Description: For two days, the cells were allowed grow to reach confluence. […] (3) 0.5 μM dexamethasone and (4) 10 μg/ml insulin (MDI medium). […] Adiponectin Assay—The adiponectin secreted into the medium was quantified using the Mouse Adiponectin Quantikine® Immunoassay kit with no modifications (R&D Systems, Minneapolis, Minn.). […] Statistical Calculations and Interpretation—All assays were preformed in duplicate. […] Differences among the doses and test agents were determined using the Student's t-test without correction for multiple comparisons; the nominal five percent probability of a type I error was selected.
# [5] = Non-fasting serum glucose in db/db diabetic mice; type: in vivo
# Description: The Model—Male, C57BLKS/J m^+/m^+ Lepr^db (db/db) mice were used to assess the potential of the test materials to reduce fasting serum glucose or insulin concentrations. This strain of mice is resistant to leptin by virtue of the absence of a functioning leptin receptor.
# Testing Procedure—Test substances were administered daily by gavage in 0.2% Tween-80. Serum was collected from the retroorbital sinus before the initial dose and ninety minutes after the third and final dose. Non-fasting serum glucose was determined enzymatically by the mutarotase/glucose oxidase method and serum insulin was determined by a mouse specific ELISA.
# Testing Procedure—Test substances were administered daily by gavage in 0.2% Tween-80. Serum was collected from the retroorbital sinus before the initial dose and ninety minutes after the fifth and final dose. Non-fasting serum glucose was determined enzymatically by the mutarotase/glucose oxidase method and serum insulin was determined by a mouse specific ELISA.
# [6] = Serum cytokine (IL-6, TNF-α) analysis, collagen induced arthritis; type: in vivo, DBA/J mice; conditions: 10 mg/kg
# Description: Cytokine analysis—Serum was collected from the mice at the termination of the experiment for cytokine analysis. The volume of sample being low (˜0.2-0.3 ml/mouse), samples from the ten mice were randomly allocated into two pools of five animals each. This was done so to permit repeat analyses; each analysis was performed a minimum of two times. TNF-α and IL-6 were analyzed using mouse specific reagents (R&D Systems, Minneapolis, Minn.) according to the manufacturer's instructions.
# PGE2 biosynthesis = PGE2 biosynthesis in A549 cells stimulated by mite dust allergen; type: cell-based, human; conditions: 10 μg/ml
# Description: Mite dust allergen isolation—Dermatophagoides farinae is the American house dust mite. D. farinae were raised on a 1:1 ratio of Purina Laboratory Chow (Ralston Purina, Co, St. Louis, Mo.) and Fleischmann's granulated dry yeast (Standard Brands, Inc. New York, N.Y.) at room temperature and 75% humidity. Live mites were aspirated from the culture container as they migrated from the medium, killed by freezing, desiccated and stored at 0% humidity. The allergenic component of the mite dust was extracted with water at ambient temperature. Five-hundred mg of mite powder were added to 5 ml of water (1:10 w/v) in a 15 ml conical centrifuge tube (VWR, Rochester, N.Y.), shaken for one minute and allowed to stand overnight at ambient temperature. The next day, the aqueous phase was filtered using a 0.2 μm disposable syringe filter (Nalgene, Rochester, N.Y.). The filtrate was termed mite dust allergen and used to test for induction of PGE2 biosynthesis in A549 pulmonary epithelial cells.
# Cell culture and treatment—The human airway epithelial cell line, A549 (American Type Culture Collection, Bethesda, Md.) was cultured and treated as previously described in Example 6. Mite allergen was added to the culture medium to achieve a final concentration of 1000 ng/ml. Eighteen hours later, the media were sampled for PGE2 determination.
# [7] = at the concentration of maximum stimulation
molecule,measurement,setting,value
"CC(=O)Oc1ccccc1C(=O)O [Aspirin, aspirin]",Maximum adiponectin stimulation,[1],failed to induce adiponectin secretion
"CC(C)CCC1=C(O)C(C(=O)C(C)C)=C(O)C(CCC(C)C)(CCC(C)C)C1=O [Hexahydro colupulone, hexahydrocolupulone]",adipogenic / lipogenic response,3T3-L1 adipocytes,failed to elicit a lipogenic response greater than the solvent controls
CC(C)CCC1=C(O)C(C(=O)C(C)C)=C(O)C(CCC(C)C)(CCC(C)C)C1=O [Hexahydrocolupulone (HHCL)],Adiponectin/IL-6,[2],0.60#
"COc1ccc2c(c1)c(CC(=O)O)c(C)n2C(=O)c1ccc(Cl)cc1 [Indomethacin, indomethacin]",adipogenic / lipogenic response,3T3-L1 adipocytes,induced lipogenesis
same,% Inhibition of IL-6 secretion (maximum),[3],53* %
same,Maximum adiponectin stimulation,[1],9%
same,% Stimulation of adiponectin secretion (maximum),[1]; [7],9%
"CCc1ccc(CCOc2ccc(CC3SC(=O)NC3=O)cc2)nc1 (centres unmarked) [Pioglitazone, pioglitazone]",maximum increase of adiponectin secretion from TNFα control,[4],80%
same,Adiponectin Index Observed,[4]; 1.0 μg/ml (Table 26),1.80
same,IL-6 Index,[3],0.37*
same,concentration of maximum adiponectin stimulation,[1],1.25 µg/mL
same,% Stimulation of adiponectin secretion (maximum),[1]; [7],12%
"Cc1c(C)c2c(c(C)c1O)CCC(C)(COc1ccc(CC3SC(=O)NC3=O)cc1)O2 (centres unmarked) [Troglitazone, troglitazone]",maximum increase of adiponectin secretion from TNFα control,[4],51%
same,concentration of maximum adiponectin stimulation,[1],0.625 µg/mL
same,% Stimulation of adiponectin secretion (maximum),[1]; [7],15%
CC(C)Cc1ccc(C(C)C(=O)O)cc1 (centres unmarked) [ibuprofen],concentration of maximum adiponectin stimulation,[1],0.625 µg/mL
same,% Stimulation of adiponectin secretion (maximum),[1]; [7],22%
"CN(C)C(=N)N=C(N)N [metformin, reference compound]",serum glucose relative to controls,[5]; three consecutive days,decreased
same,lipogenic index (triglyceride content relative to solvent control),"3T3-L1 adipocytes; Oil Red O, 50 μg/ml",0.79
C[C@]12C=CC(=O)C=C1CC[C@@H]1[C@@H]2[C@@H](O)C[C@@]2(C)[C@H]1CC[C@]2(O)C(=O)CO [prednisolone],reduction of serum IL-6 levels,[6],reached a statistical significance
CN(CCOc1ccc(CC2SC(=O)NC2=O)cc1)c1ccccn1 (centres unmarked) [rosiglitazone],Glucose [% Pretreatment],"[5]; 1.0 mg/kg-day by gavage, three days, db/db mice, non-fasting serum",83.0# % Pretreatment
O=C(O)c1ccccc1O [salicylic acid],IL-6 Index,[3],0.52*
same,Maximum adiponectin stimulation,[1],failed to induce adiponectin secretion
same,Adiponectin Index,"[1]; at the concentration of maximum stimulation, indexed to LPS control",0.96
Beta acids,adipogenic / lipogenic response,3T3-L1 adipocytes,comparable to indomethacin and troglitazone
same,Percent PGE2 Inhibition,PGE2 biosynthesis,83%
